# Like-named read-outs stand apart in the source and are kept apart here.
# Columns and labels:
# [1] = tested on: galium (catchweed bedstraw, Galium aparine); assay: Test A postemergence, galium; assay type: in vivo; conditions: Galium, post-emergence, 240 h, Postemergence, 0 to 100 scale (0 no effect, 100 complete control); for pest or weed control at 125 g/ha: 125 g ai/ha; for pest or weed control at 500 g/ha: 500 g ai/ha
# Method in brief: (§1)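 Greenhouse pot test in a loam–sand blend; compounds delivered in a non-phytotoxic solvent carrying a surfactant, applied either as a directed spray to soil at seeding or over seedlings 2 to 10 cm high with one to two leaves.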
# [2] = tested on: Foxtail, Giant (giant foxtail, Setaria faberi); assay: Test A preemergence, Foxtail, Giant; assay type: in vivo; conditions: Setaria faberi, pre-emergence, 240 h, Preemergence; for pest or weed control at 125 g/ha: 125 g ai/ha; for pest or weed control at 500 g/ha: 500 g ai/ha
# Method in brief: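 Compounds in non-phytotoxic solvent with surfactant. Soil: loam/sand. Preemergence via directed soil spray after seeding; postemergence on seedlings 2–10 cm, one- to two-leaf.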
# rice (Oryza sativa) = assay: Test B flooded paddy test, rice; conditions: 336 h, read-out: Plant response rating, Rice
# [3] = tested on: ducksalad (Heteranthera limosa); assay: Test B flooded paddy test, ducksalad; conditions: 336 h, read-out: Plant response rating, Ducksalad
# [4] = tested on: wheat (Triticum aestivum); assay: Test A postemergence, wheat; assay type: in vivo; conditions: Triticum aestivum, post-emergence, 240 h, Postemergence, 0 to 100 scale (0 no effect, 100 complete control); for plant injury at 125 g/ha: 125 g ai/ha; for plant injury at 500 g/ha: 500 g ai/ha
# Method in brief: as §1
# [5] = visual injury approx. 10 days, read-out: Plant response rating, Galium
# [6] = visual injury, approx. 10 days, read-out: Plant response rating, Galium
# [7] = visual injury on 0 to 100 scale (0 no effect, 100 complete control), approximately 10 days, read-out: Foxtail, Giant plant response rating
# [8] = 0 to 100 scale (0 no effect, 100 complete control), read-out: Plant response rating, Foxtail, Giant
# [9] = visual injury approx. 10 days, read-out: Plant response rating, Wheat
# [10] = visual injury, approx. 10 days, read-out: Plant response rating, Wheat
# [11] = visual injury vs untreated controls after approx. 10 days, read-out: Galium plant response rating
# [12] = visual injury vs untreated controls after approx. 10 days, read-out: Wheat plant response rating
# [13] = read-out: Plant response rating, Wheat
# [14] = read-out: Plant response rating, Galium
# [15] = visual injury, 0 to 100 scale (0 no effect, 100 complete control), approx. 10 days, read-out: Plant response rating, Foxtail, Giant
Compound,"pest or weed control at 125 g/ha [1, 5]","pest or weed control at 500 g/ha [1, 6]","pest or weed control at 125 g/ha [2, 7]","pest or weed control at 500 g/ha [2, 8]",plant injury at 250 g/ha (rice (Oryza sativa)),pest or weed control at 250 g/ha [3],"plant injury at 125 g/ha [4, 9]","plant injury at 500 g/ha [4, 10]","pest or weed control at 500 g/ha [1, 11]","plant injury at 500 g/ha [4, 12]","plant injury at 125 g/ha [4, 13]","pest or weed control at 125 g/ha [1, 14]","pest or weed control at 125 g/ha [2, 15]"
"Cc1cc(Cl)c(NS(=O)(=O)C(F)(F)F)cc1C(=O)N1CCOCC1 [Compound 16, N-[2-Chloro-4-methyl-5-(4-morpholinylcarbonyl)phenyl]-1,1,1-trifluoromethanesulfonamide]",80%,90%,30%,100%,0%,40%,50%,70%,–,–,–,–,–
"Cc1cc(Cl)c(NS(=O)(=O)C(F)(F)F)cc1C(=O)N1CCCCC1 [Compound 18, N-[2-Chloro-4-methyl-5-(1-piperidinylcarbonyl)phenyl]-1,1,1-trifluoromethanesulfonamide]",80%,80%,100%,100%,0%,0%,0%,70%,–,–,–,–,–
"CCc1cc(-c2cc(NS(=O)(=O)C(F)(F)F)c(C)cc2C)c(=O)n(C)n1 [Compound 34, N-[5-(6-Ethyl-2,3-dihydro-2-methyl-3-oxo-4-pyridazinyl)-2,4-dimethylphenyl]-1,1,1-trifluoromethanesulfonamide]",10%,0%,0%,30%,0%,0%,0%,0%,–,–,–,–,–
"Cc1cc(C)c(N(COC(=O)C(C)(C)C)S(=O)(=O)C(F)(F)F)cc1C1=NO[C@@H]2CCC[C@H]12 [Compound 100, [[2,4-Dimethyl-5-[(3aR,6aR)-3a,5,6,6a-tetrahydro-4H-cyclopent[d]isoxazol-3-yl]phenyl][(trifluoromethyl)sulfonyl]amino]methyl 2,2-dimethylpropanoate]",80%,–,40%,90%,20%,70%,20%,–,90%,50%,–,–,–
"Cc1cc(C)c(C2=NO[C@@H]3CCC[C@H]23)cc1NS(=O)(=O)C(F)(F)F [Compound 103, N-[2,4-Dimethyl-5-[(3aR,6aR)-3a,5,6,6a-tetrahydro-4H-cyclopent[d]isoxazol-3-yl]phenyl]-1,1,1-trifluoromethanesulfonamide]",90%,–,90%,100%,25%,80%,60%,–,100%,80%,–,–,–
"Cc1cc(C)c(C2=NOC3CCOCC23)cc1NS(=O)(=O)C(F)(F)F (centres unmarked) [Compound 120, N-[2,4-Dimethyl-5-(3a,6,7,7a-tetrahydro-4H-pyrano[3,4-d]isoxazol-3-yl)phenyl]-1,1,1-trifluoromethanesulfonamide]",90%,–,100%,100%,0%,55%,70%,–,90%,70%,–,–,–
"Cc1cc(C)c(C2=NOC3COCCC23)cc1NS(=O)(=O)C(F)(F)F (centres unmarked) [Compound 121, N-[2,4-Dimethyl-5-(3a,4,7,7a-tetrahydro-5H-pyrano[4,3-d]isoxazol-3-yl)phenyl]-1,1,1-trifluoromethanesulfonamide]",90%,–,100%,100%,20%,75%,60%,–,90%,70%,–,–,–
"Cc1c(NS(=O)(=O)C(F)(F)F)cc(C(=O)N(C)C)c(C)c1F [Compound 128, 3-Fluoro-N,N,2,4-tetramethyl-5-[[(trifluoromethyl)sulfonyl]amino]benzamide]",80%,–,50%,100%,0%,50%,30%,–,90%,60%,–,–,–
"Cc1cc(C)c(N(COC(=O)C(C)(C)C)S(=O)(=O)C(F)(F)F)cc1C1=NOC2(CCCC2)C1 [Compound 140, [[2,4-Dimethyl-5-(1-oxa-2-azaspiro[4.4]non-2-en-3-yl)phenyl][(trifluoromethyl)sulfonyl]amino]methyl 2,2-dimethylpropanoate]",50%,–,20%,90%,0%,85%,–,–,70%,60%,0%,–,–
"Cc1cc(C)c(N(COC(=O)C(C)(C)C)S(=O)(=O)C(F)(F)F)cc1C1=NOC2(CCCCC2)C1 [Compound 159, [[2,4-Dimethyl-5-(1-oxa-2-azaspiro[4.5]dec-2-en-3-yl)phenyl][(trifluoromethyl)sulfonyl]amino]methyl 2,2-dimethylpropanoate]",–,–,30%,70%,0%,35%,–,–,90%,50%,30%,80%,–
"Cc1c(NS(=O)(=O)C(F)(F)F)cc(C(=O)N2CCOCC2)c(C)c1F [Compound 190, 1,1,1-Trifluoro-N-[3-fluoro-2,4-dimethyl-5-(4-morpholinylcarbonyl)phenyl]methanesulfonamide]",–,–,–,100%,0%,75%,–,–,90%,70%,40%,70%,90%
"Cc1cc(C)c(C2=NOC3(CCCCC3)C2)cc1NS(=O)(=O)C(F)(F)F [Compound 197, N-[2,4-Dimethyl-5-(1-oxa-2-azaspiro[4.5]dec-2-en-3-yl)phenyl]-1,1,1-trifluoromethanesulfonamide]",–,–,–,100%,0%,95%,–,–,90%,70%,60%,90%,100%
"Cc1cc(C)c(C2=NOC3(CCCC3)C2)cc1NS(=O)(=O)C(F)(F)F [Compound 207, N-[2,4-Dimethyl-5-(1-oxa-2-azaspiro[4.4]non-2-en-3-yl)phenyl]-1,1,1-trifluoromethanesulfonamide]",–,–,–,100%,0%,95%,–,–,70%,70%,60%,50%,90%
